{
  "source": "patent US20060281806A1",
  "about": "“Treatment and inhibition of disease conditions using flexible heteroarotinoids” (priority 2005, published 2006)",
  "key": {"OVCAR-3 xenograft tumors": {"tested_on": "OVCAR-3 xenograft tumors", "test": "Histochemical and immunohistochemical evaluation of xenograft tumors (glands, MUC-1, TUNEL)", "assay_type": "in vivo, mouse", "settings": "10 mg/kg/day by gavage; end of treatment; versus control", "text": "On the last day of treatment, the animals were sacrificed and then the tumors were removed, fixed in neutral buffered formalin and embedded in paraffin. Five micron sections of the paraffin-embedded tumors were stained with hematoxylin and eosin (H&E) for histologic evaluation, and with the TUNEL (terminal deoxynucleodidyl transferase-mediated biotin-deoxyuridine triphosphate nick) FragEL kit (Oncogene Research Products, Boston, Mass.) for evaluation of apoptosis according to manufacturers instructions. MUC-1 expression was detected in tumor sections using a mouse monoclonal antibody to human MUC-1 (Pharmingen, San Diego, Calif.) and the Histostain-Plus AEC Kit (Zymed Laboratories, San Francisco, Calif.) according to manufacturers instructions. Briefly, endogenous peroxidase activity in deparaffinized sections was quenched with 3% H2O2 in methanol and then sections were incubated in serum blocking solution, and subsequently in primary antibody, diluted 1:50 in phosphate buffered saline (PBS), overnight at 4° C. in a humid chamber. Sections were then washed with PBS, treated with biotinylated secondary antibody for 15 minutes, followed by enzyme conjugate for 10 minutes. […] Tumor sections were scored for number of glands (quantified in one H&E stained sections and 3 MUC-1-stained sections) and MUC-1 and TUNEL staining (based on staining intensity and percent positive cells). […]"}, "[1]": {"settings": "RAID pharmacokinetic studies (35); cited from earlier work"}, "[2]": {"test": "Alanine aminotransferase (ALT) activity in plasma of mice", "assay_type": "in vivo, mouse", "settings": "end of treatment, 10 mg/kg/day by gavage", "procedure": "At the end of the treatment period, blood was drawn from each animal. Plasma was separated by centrifugation and stored at −70° C. The activity of ALT was determined in aliquots of plasma by standard spectrophotometric enzymatic techniques which are based on the reduction of pyruvate by lactate dehydrogenase (28). The method measures NADH disappearance with time of incubation at 37° C. The activities are expressed as mm/L/min. Two different amounts of plasma were used in each assay to assure measurement of the maximum rate."}, "[3]": {"tested_on": "SiHa human cervical cell line", "test": "In vitro cytotoxicity (SRB growth inhibition) assay, SiHa", "assay_type": "cell-based", "parameters": "dose or concentration left out as unconfirmed", "settings": "72 h", "procedure": "The SHetA2, SHetA3, SHetA4, SHet50 and 9-cis-RA compounds were evaluated in 4 cervical carcinoma cell lines. The SiHa, CC-1 and C33a human cervical cell lines were maintained in Minimal Essential Media (MEM) containing Earle's salts and L-glutamine supplemented with nonessential amino acids, 1% sodium pyruvate, 10% fetal bovine serum (FBS) and antibiotic/antimycotic. The HT-3 cervical carcinoma cell line was cultured in McCoy's 5a medium supplemented with 10% FBS and antibiotic/antimycotic. Cells were inoculated into 96 well microtiter plates at densities of 1000 cells/well and incubated for 24 h prior to addition of drugs. Drugs were dissolved in dimethyl sulfoxide (DMSO) and diluted in complete medium, prior to addition to triplicate culture wells to achieve final concentrations of […]. Following drug addition, the plates were incubated for 72 h. The assay was terminated by the addition of cold TCA and the cells were stained with 0.4% sulforhodamine B (SRB) in 1% acetic acid. Bound stain was subsequently solubilized with 10 mM trizma base, and the absorbance was read on an automated plate reader at a wavelength of 560 nm. Growth inhibition was determined by dividing the average Optical Density (OD) of the triplicated treated cultures by the average OD of the triplicate control cultures treated with DMSO solvent only. This ratio was converted into a percentage by multiplying by 100. The potency (concentration required to induce half of the maximal activity—GI50) were derived from dose-response graphs generated with results from 3 to 5 individual experiments using GraphPad Software."}, "[4]": {"tested_on": "SW962 vulvar carcinoma cultures", "test": "Annexin-V-Fluos apoptosis assay (flow cytometry)", "assay_type": "cell-based", "settings": "10 μM; same concentration range as 4-HPR", "procedure": "SW962 vulvar carcinoma cultures were treated with 10 μM of the indicated retinoid or the same volume of solvent. At the specified times, the cultures were labeled with Annexin-V-Fluos and propidium iodide (PI), and the number of apoptotic cells was quantified using dual-laser flow cytometric analysis."}, "[5]": {"tested_on": "C6 glioma cells injected into the brains of rats", "test": "Rat glioma (brain cancer) model, MRI", "assay_type": "in vivo", "settings": "Monday, Wednesday and Friday", "procedure": "FIG. 9. SHetA2 inhibition of Angiogenesis. C6 glioma cells were injected into the brains of 2 rats. One week later, one rat was gavaged with 60 mg/kg/day SHetA2 on each Monday, Wednesday and Friday. Blood vessels were imaged by MRI.\nFIG. 10. […] C6 glioma cells were injected into the brains of 2 rats. One week later, one rat was gavaged with 60 mg/kg/day SHetA2 on each Monday, Wednesday and Friday. The blood flow was measured by MRI imaging.\nFIG. 11. SHetA2 inhibition of glioma tumor growth. C6 glioma cells were injected into the brains of 2 rats. One week later, one rat was gavaged with 60 mg/kg/day SHetA2 on each Monday, Wednesday and Friday. The tumor size was measured by MRI imaging.\nIn this in vivo model, glioma cells are injected into the brains of rats and the growth of the tumor and development of blood vessels in the tumor is measured by magnetic resonance imaging (MRI)."}, "[6]": {"settings": "oral 60 mg/kg/day, versus untreated control"}},
  "data": [
    {"smiles": "CC1(C)CC(C)(C)c2cc(NC(=S)Nc3ccc([N+](=O)[O-])cc3)ccc2S1", "note": "[SHetA2]", "values": [
      {"measurement": "MUC-1 expression in xenograft tumors", "setting": "OVCAR-3 xenograft tumors", "result": "increase staining for mucin-1 (MUC1) protein"},
      {"measurement": "gland formation (numbers of glands) in xenograft tumors", "setting": "OVCAR-3 xenograft tumors", "result": "greatest degree of gland induction"},
      {"measurement": "concentrations achieved and maintained in mice", "setting": "[1]", "result": "micromolar concentrations"},
      {"measurement": "ALT Activity", "setting": "[2]", "result": "118.5 ± 153.4", "unit": "mm/liter/min"},
      {"measurement": "Efficacy: percent growth inhibition relative to the untreated control", "setting": "[3]", "result": 68, "unit": "%"},
      {"measurement": "induction of apoptosis (Annexin-V-Flous assay)", "setting": "[4]", "result": "induced apoptosis"},
      {"measurement": "blood flow (MRI)", "setting": "[5]; gavage 60 mg/kg/day", "result": "inhibition of blood flow"},
      {"measurement": "angiogenesis of glioma tumors (MRI)", "setting": "[5]; [6]", "result": "inhibited"},
      {"measurement": "growth of glioma tumors (MRI)", "setting": "[5]; [6]", "result": "inhibited"}
    ]}
  ]
}
